Data published in patent US20130053385A1, “METHOD OF COMBATING AND CONTROLLING PESTS” (SYNGENTA LIMITED, priority 2009, published 2013).
Where two headings read alike, the source gives them in different places.

Legend:
Assay type in all cases: in vivo
[1] = tested on: Thrips tabaci (Onion Thrips); assay: Activity against Thrips tabaci, mixed population, feeding/residual contact activity, preventive (sunflower leaf discs, Example B3); settings: foliar, 144 h, sprayed sunflower leaf discs, 6 days incubation, mixed-age thrips
Protocol: Activity Against Thrips tabaci (Onion Thrips)
(§1) (mixed population, feeding/residual contact activity, preventive)
Sunflower leaf discs are placed on agar in a 24-well microtiter plate and sprayed with test solutions. After drying, the leaf discs are infested with a thrips population of mixed ages. After an incubation period of 6 days, samples are checked for mortality and special effects (e.g. phytotoxicity).

[2] = tested on: Plutella xylostella (Diamond Back Moth); assay: Activity against Plutella xylostella, larvicide, feeding/residual contact activity, preventive (artificial diet MTP, Example B5); settings: 120 h, read-out: activity (larval mortality, antifeedant, growth regulation)
Protocol: Activity Against Plutella xylostella (Diamond Back Moth)
(§2) (larvicide, feeding/residual contact activity, preventive)
24-well microtiter plate (MTP) with artificial diet is treated with test solutions by pipetting. After drying, the MTP's are infested with larvae (L2)(10-15 per well). After an incubation period of 5 days, samples are checked for larval mortality, antifeedant and growth regulation.

[3] = tested on: Myzus persicae (Green Peach Aphid); assay: Activity against Myzus persicae, mixed population, feeding/residual contact activity, preventive (sunflower leaf discs, Example B1); settings: foliar, 144 h, read-out: activity (mortality)
Protocol: (§3) Activity Against Myzus persicae (Green Peach Aphid)
as §1
Sunflower leaf discs are placed on agar in a 24-well microtiter plate and sprayed with test solutions. After drying, the leaf discs are infested with an aphid population of mixed ages. After an incubation period of 6 days, samples are checked for mortality and special effects (e.g. phytotoxicity).

[4] = tested on: Tetranychus urticae (Two-Spotted Spider Mite); assay: Activity against Tetranychus urticae, mixed population, feeding/residual contact activity, preventive (bean leaf discs, Example B4); settings: foliar, 192 h, read-out: activity (egg, larval and adult mortality)
Description: Activity Against Tetranychus urticae (Two-Spotted Spider Mite)
as §1
Bean leaf discs on agar in 24-well microtiter plates are sprayed with test solutions. After drying, the leaf discs are infested with mite populations of mixed ages. 8 days later, discs are checked for egg mortality, larval mortality, and adult mortality.

[5] = tested on: Myzus persicae (Green Peach Aphid); assay: Activity against Myzus persicae, mixed population, feeding activity (sucrose solution through Parafilm, Example B7); settings: 120 h, in sucrose solution, 5 days after infestation
Description: as §3
(mixed population, feeding activity)
Test compounds are applied with a pipette into 24 well plates and mixed with a sucrose solution. The plates are closed with a stretched Parafilm. A plastic stencil with 24 holes is placed onto the plate and infested pea seedlings are placed directly on the Parafilm. The infested plate is closed with a gel blotting paper and another plastic stencil, and then turned upside down. 5 days after infestation the samples are checked for mortality.

[6] = tested on: Diabrotica balteata (Corn Root Worm); assay: Activity against Diabrotica balteata, larvicide, feeding/residual contact activity, preventive (artificial diet MTP, Example B6); settings: 120 h, L2 larvae, 5 days incubation, read-out: activity (larval mortality, antifeedant, growth regulation)
Protocol: Activity Against Diabrotica balteata (Corn Root Worm)
as §2
24-well microtiter plate (MTP) with artificial diet is treated with test solutions by pipetting. After drying, the MTP's are infested with larvae (L2)(6-10 per well). After an incubation period of 5 days, samples are checked for larval mortality, antifeedant and growth regulation.

[7] = 400 ppm, sprayed sunflower leaf discs, 6 days incubation, mixed-age aphids
[8] = 400 ppm, sprayed bean leaf discs, 8 days, mixed-age mites
[9] = 400 ppm, artificial diet, L2 larvae, 5 days incubation

| SMILES | mortality at 400 ppm [1] [%] | mortality at 400 ppm [3, 7] [%] | mortality at 400 ppm [4, 8] [%] | mortality at 400 ppm [2, 9] [%] | other results |
| --- | --- | --- | --- | --- | --- |
| Cc1cc(C)c(C2=C(OC(=O)C(C)C)CC(CC3CCOC3)C2=O)c(C)c1 (stereo not shown) [Compound P13] | > 80 |  |  |  |  |
| CCSC(=O)N1CCC(/C=C2\CC(=O)C(c3c(C)cc(C)cc3C)C2=O)C1 (stereo not shown) [Compound T33] |  |  |  |  | mortality at 400 ppm [2]: > 80% |
| Cc1cc(C)c(C2C(=O)C/C(=C\C3CCCOC3)C2=O)c(C)c1 (stereo not shown) [Compound T14] | > 80 | > 80 | > 80 | > 80 | mortality at 25 ppm [5]: > 80% |
| CON1CCC(CC2CC(OC(=O)OC(C)C)=C(c3c(C)cc(C)cc3C)C2=O)CC1 (stereo not shown) [Compound P56] | > 80 |  | > 80 |  |  |
| CON1CCC(CC2CC(=O)C(c3c(C)cc(C)cc3C)C2=O)CC1 (stereo not shown) [Compound T23] | > 80 | > 80 |  |  |  |
| CCCOC(=O)OC1=C(c2c(C)cc(C)cc2C)C(=O)C(CC2CCOC2)C1 (stereo not shown) [Compound P20] | > 80 |  |  | > 80 |  |
| Cc1cc(C)c(C2C(=O)C/C(=C\C3CCN(C(=O)OC(C)(C)C)CC3)C2=O)c(C)c1 (stereo not shown) [Compound T54] |  |  | > 80 |  | mortality at 400 ppm [6]: > 80% |
| Cc1cc(C)c(C2=C(OC(=O)Oc3ccccc3)CC(CC3CCOC3)C2=O)c(C)c1 (stereo not shown) [Compound P26] | > 80 |  |  |  |  |
| CCSC(=O)OC1=C(c2c(C)cc(C)cc2C)C(=O)C(CC2CCOC2)C1 (stereo not shown) [Compound P30] | > 80 |  |  |  |  |
| Cc1cc(-c2ccc(Cl)cc2F)cc(C)c1C1C(=O)C/C(=C\C2CCOCC2)C1=O (stereo not shown) [Compound T132] |  | > 80 | > 80 |  |  |
| Cc1cc(C)c(C2C(=O)CC(CC3CCOCC3)C2=O)c(C)c1 (stereo not shown) [Compound T4] | > 80 |  |  | > 80 |  |
| Cc1cc(-c2ccc(F)cc2)cc(C)c1C1C(=O)CC(CC2CCOCC2)C1=O (stereo not shown) [Compound T63] |  | > 80 | > 80 |  | mortality at 25 ppm [5]: > 80% |
| Cc1cc(C)c(C2C(=O)C/C(=C\C3CCN(S(C)(=O)=O)C3)C2=O)c(C)c1 (stereo not shown) [Compound T31] |  |  | > 80 | > 80 |  |
| Cc1cc(Br)cc(C)c1C1C(=O)C/C(=C\C2CCOCC2)C1=O (stereo not shown) [Compound T45] |  | > 80 | > 80 |  |  |
| Cc1cc(Br)cc(C)c1C1C(=O)CC(CC2CCOCC2)C1=O (stereo not shown) [Compound T138] |  | > 80 | > 80 |  |  |
| Cc1cc(C)c(C2=C(OC(=O)c3ccccc3)CC(CC3CCOCC3)C2=O)c(C)c1 (stereo not shown) [Compound P44] | > 80 | > 80 | > 80 | > 80 | mortality at 400 ppm [6]: > 80% |
| CON1CCC(CC2CC(OC(C)=O)=C(c3c(C)cc(C)cc3C)C2=O)CC1 (stereo not shown) [Compound P50] | > 80 | > 80 |  |  |  |
| Cc1cc(C)c(C2C(=O)CC(CC3CCN(C(=O)c4cc(C)nn4C)CC3)C2=O)c(C)c1 (stereo not shown) [Compound T121] |  |  |  | > 80 |  |
| Cc1cc(C)c(C2=C(OC(=O)C(C)(C)C)CC(CC3CCOC3)C2=O)c(C)c1 (stereo not shown) [Compound P7] | > 80 | > 80 | > 80 | > 80 |  |
| Cc1cc(-c2ccc(F)cc2)cc(C)c1C1C(=O)C/C(=C\C2CCOCC2)C1=O (stereo not shown) [Compound T61] |  | > 80 | > 80 |  | mortality at 25 ppm [5]: > 80% |
| Cc1cc(F)cc(C)c1C1C(=O)CC(CC2CCOC2)C1=O (stereo not shown) [Compound T171] |  | > 80 | > 80 |  |  |
| Cc1cc(C)c(C2=C(OC(=O)OCC(C)C)CC(CC3CCOC3)C2=O)c(C)c1 (stereo not shown) [Compound P23] | > 80 |  | > 80 |  |  |
| Cc1cc(C)c(C2C(=O)CC(CC3CCN(C(=O)Oc4ccccc4)CC3)C2=O)c(C)c1 (stereo not shown) [Compound T68] |  |  |  |  | mortality at 400 ppm [3]: > 80%; mortality at 400 ppm [4]: > 80% |

| SMILES | mortality at 400 ppm [1] [%] | mortality at 400 ppm [3, 7] [%] | mortality at 400 ppm [4, 8] [%] | mortality at 400 ppm [2, 9] [%] | other results |
| --- | --- | --- | --- | --- | --- |
| Cc1cc(C)c(C2C(=O)C/C(=C\C3CCOC3)C2=O)c(C)c1 (stereo not shown) [Compound T17] | > 80 | > 80 | > 80 | > 80 | mortality at 400 ppm [6]: > 80% |
| Cc1cc(C)c(C2=C(OC(=O)c3ccccc3)CC(CC3CCOC3)C2=O)c(C)c1 (stereo not shown) [Compound P17] | > 80 | > 80 | > 80 |  |  |
| CCS(=O)(=O)N1CCC(CC2CC(=O)C(c3c(C)cc(C)cc3C)C2=O)CC1 (stereo not shown) [Compound T95] |  | > 80 | > 80 |  |  |
| Cc1cc(C)c(C2C(=O)C/C(=C\C3CCOC(C)(C)C3)C2=O)c(C)c1 (stereo not shown) [Compound T37] |  | > 80 | > 80 |  |  |
| Cc1cc(C)c(C2=C(OC(=O)C3CCCCC3)CC(CC3CCOC3)C2=O)c(C)c1 (stereo not shown) [Compound P15] | > 80 |  |  |  |  |
| Cc1cccc(C)c1C1C(=O)CC(CC2CCOCC2)C1=O (stereo not shown) [Compound T52] | > 80 | > 80 | > 80 |  |  |
| Cc1cc(C)c(C2=C(OC(=O)OC(C)C)CC(CC3CCOCC3)C2=O)c(C)c1 (stereo not shown) [Compound P43] | > 80 |  |  |  |  |
| CCS(=O)(=O)OC1=C(c2c(C)cc(C)cc2C)C(=O)C(CC2CCOC2)C1 (stereo not shown) [Compound P27] | > 80 |  |  |  |  |
| Cc1cc(C)c(C2=C(OC(=O)C(C)(C)C)CC(CC3CCOCC3)C2=O)c(C)c1 (stereo not shown) [Compound P5] |  |  |  | > 80 |  |
| Cc1cc(C)c(C2C(=O)CC(CC3CCOC(C)(C)C3)C2=O)c(C)c1 (stereo not shown) [Compound T39] |  |  | > 80 |  | mortality at 400 ppm [6]: > 80% |
| Cc1cc(C)c(C2=C(OC(=O)C3CC3)CC(CC3CCN(C(=O)C4CC4)C3)C2=O)c(C)c1 (stereo not shown) [Compound P57] |  | > 80 | > 80 |  |  |
| COc1ccc(C(=O)OC2=C(c3c(C)cc(C)cc3C)C(=O)C(CC3CCOC3)C2)cc1 (stereo not shown) [Compound P18] | > 80 |  | > 80 |  |  |
| Cc1cc(C)c(C2C(=O)C/C(=C\C3CCOCC3)C2=O)c(C)c1 (stereo not shown) [Compound T8] | > 80 | > 80 | > 80 | > 80 |  |
| Cc1cc(Br)cc(C)c1C1C(=O)CC(CC2CCOC2)C1=O (stereo not shown) [Compound T160] |  |  |  |  | mortality at 400 ppm [6]: > 80% |
| Cc1cc(C)c(C2C(=O)CC(CC3CCOC3)C2=O)c(C)c1 (stereo not shown) [Compound T5] | > 80 | > 80 |  | > 80 |  |
| CON1CCC(CC2CC(OC(=O)c3ccccc3)=C(c3c(C)cc(C)cc3C)C2=O)CC1 (stereo not shown) [Compound P55] | > 80 |  | > 80 |  |  |
| COc1ccc(C(=O)OC2=C(c3c(C)cc(C)cc3C)C(=O)CC2CC2CCOC2)cc1 (stereo not shown) [Compound P71] |  | > 80 | > 80 |  | mortality at 400 ppm [6]: > 80% |
| Cc1cc(C)c(C2=C(OC(=O)OCC(C)(C)C)CC(CC3CCOC3)C2=O)c(C)c1 (stereo not shown) [Compound P24] | > 80 |  |  |  |  |
| Cc1cc(C)c(C2C(=O)CC(CC3CCCOC3)C2=O)c(C)c1 (stereo not shown) [Compound T16] | > 80 | > 80 |  | > 80 |  |
| Cc1cc(C)c(C2C(=O)CC(CC3C[C@@H]4O[C@H]3[C@@H]3C(=O)NC(=O)[C@@H]34)C2=O)c(C)c1 (stereo partly shown) [Compound T127] |  |  |  | > 80 |  |
| Cc1cc(C)c(C2=C(OC(=O)C(C)(C)C)CC(CC3CCCOC3)C2=O)c(C)c1 (stereo not shown) [Compound P37] |  |  | > 80 | > 80 |  |
| Cc1cc(-c2ccc(Cl)cc2)cc(C)c1C1C(=O)C/C(=C\C2CCOCC2)C1=O (stereo not shown) [Compound T62] |  | > 80 | > 80 | > 80 | mortality at 25 ppm [5]: > 80% |
